Series [1] in a line: Dissolution rate study in a dissolution medium. The class given is physicochemical. The settings on record: over a period of 20 minutes. On the procedure:
FIG. 9 is dissolution profiles of raw genistein versus PCA processed genistein under different pressures of 70 bar (Run 6) and 100 bar (Run 4).
46% weight percentage of the processed genistein from Run 4 (100 bar) is dissolved in a dissolution medium while only 23% of the unprocessed genistein is dissolved over a period of 20 minutes. This 2-fold increase in dissolution rate can be credited to the reduction in particle size resulting in an increase in total surface area. However, the dissolution rate for particles which are obtained at 70 bar with smaller particles (Run 6) is slower than that of particles obtained at 100 bar (Run 4).

A short description of series [2]: Saturation concentration of genistein in acetone. Particulars: room temperature and atmospheric pressure. It is filed as physicochemical. On the procedure:
As used herein, the concentration of genistein means the concentration of the genistein dissolved in an organic solvent such as acetone at room temperature and atmospheric pressure. The saturation point of genistein concentration dissolved in acetone at room temperature and atmospheric pressure is 4 mg/mL.

This note sets out measurements from US9259396B2, “Method of preparing soy isoflavone nanoparticles by precipitation with compressed antisolvent (PCA) using a supercritical fluid” (Nano and Advanced Materials Institute Limited, priority 2012, dated 2016).

With `O=c1c(-c2ccc(O)cc2)coc2cc(O)cc(O)c12` [unprocessed genistein, genistein], in series [1], the “weight percentage dissolved in a dissolution medium” value was found to be 23%. Also, the “saturation point of genistein concentration dissolved in acetone” value in series [2] is reported as 4 mg/mL.
